Values quoted from earlier work, collected in patent publication US20030044472A1, “METHOD AND SYNERGISTIC COMPOSITION FOR TREATING ATTENTION DEFICIT/HYPERACTIVITY DISORDER” (DexGen-Intellectual Property, Homocysteine, Inc., priority 2001, published 2003).
Counter-ions that a name gives are not always drawn.

What was measured:
[1] = tested on: ADHD children; conditions: supplements at 6 mg/lb. of the child
[2] = tested on: ADHD children; conditions: double blind clinical study

Compound | hyperactivity [1] | test score improvements vs. placebo [2]
[Mg+2] [magnesium] | a decrease in hyperactivity | –
COC(=O)C(c1ccccc1)C1CCCCN1 (centres unmarked) [Ritalin, methylphenidate hydrochloride] | – | significant test score improvements
